These are literature values, as cited in patent US20200261395A1, “METHOD FOR TREATMENT OF ROSACEA” (Sol-Gel Technologies Ltd., priority 2019, published 2020).

The data set has as its system rosacea lesions. To be noted: BPO as sole active agent.

For `O=C(OOC(=O)c1ccccc1)c1ccccc1` [BPO, Benzoyl peroxide], the “Response of rosacea lesions” value is given as “unresponsive”.
